Laboratory results: BigSolDB 2.1

COc1ccc(C=O)cc1O
solubility (mole fraction)
Details	in ethanol	in ethyl acetate	in formic acid	in isobutanol	in isobutyl acetate	in isopropanol	in methanol	in methyl acetate	in n-butanol	in n-propanol
278.15 K	0.0125	0.0203	0.0432	0.0086	0.015	0.0072	0.0156	0.0382	0.012	0.0186
283.15 K	0.0153	0.0246	0.0486	0.0098	0.0165	0.0092	0.0188	0.0425	0.0149	0.0209
288.15 K	0.0184	0.029	0.0571	0.0161	0.0184	0.0118	0.0231	0.0536	0.017	0.0242
293.15 K	0.0227	0.0342	0.068	0.0192	0.0216	0.0149	0.0291	0.0633	0.0219	0.0284
298.15 K	0.0279	0.0401	0.0832	0.0223	0.025	0.0186	0.0362	0.074	0.0253	0.0331
303.15 K	0.0338	0.0478	0.101	0.0271	0.0305	0.0259	0.0445	0.0866	0.0352	0.04
308.15 K	0.0429	0.0559	0.115	0.0338	0.034	0.0296	0.059	0.104	0.0445	0.0455
313.15 K	0.0547	0.0655	0.137	0.042	0.0408	0.0386	0.0836	0.121	0.0542	0.0582
318.15 K	0.0695	0.0806	0.165	0.0499	0.0509	0.0576	0.134	0.147	0.0641	0.0751
